Entries after “also recorded” stand apart in the source; their conditions may differ. Where a SMILES comes first, the peptide text is derived from it. [ ]: non-standard residue; d: D form.
Assays:
[1] = test system: primary mouse keratinocytes (1° MK); assay: UVB-evoked Ca++ signaling in primary mouse keratinocytes (fluo-4 imaging); type: cell-based; settings: for UVB-evoked Ca++ signaling (ΔF/F0): GSK205 20 μM; for ET1-augmented, UVB-induced Ca++ transients: UVB and ET1 co-exposure
Procedure: Ca++ imaging of 1° MK was conducted following routine procedures. For UVB stimulation, a customized device was built. The system comprised a printed circuit board for electrical interconnects and mechanical support and an ultraviolet light-emitting diode (UV LED).
The operating wavelength was 295 nm (FIG. 2A), with a full-width half-max of 12 nm. The optical power was 500 mW. The focal point was aimed at the plane of the upper surface of the quartz coverslip, which was used to minimize UV absorption along the optical path towards the cells (FIG. 2A-FIG. 2C). The optical intensity at the focal point was estimated to be 150 mW/mm^2.
Ca++ imaging of mouse 1° MK in response to chemical activation of TRPV4 was conducted after loading with 2 μM fura2-AM, following a ratiometric Ca2+ imaging protocol with 340/380 nm […] for dual excitation. Ratios of emissions were acquired at 0.5 Hz. ΔR/R0 was determined as the fraction of the increase of a given ratio over baseline ratio, divided by baseline ratio. For stimulation of cells with UVB, where fura-2 was not suitable because of the proximity of stimulation with 340/380 nm and 295 nm, 2 μM fluo4-AM was used instead. Ca++ imaging was carried out at 488 nm excitation, acquisition of emissions at 0.5 Hz, expressed as ΔF/F0. In the custom-built UV optical system, UV LEDs were capped with a ball lens, a transparent optical window in the shape of a hemispherical lens (FIG. 2B). The LED output optical beam focused at 15-20 mm from the lens, with a spot diameter of approximately 1.5-2.0 mm (FIG. 2C). […] The thermal equilibration stage was set for physiological temperature.

ET1 [2] = assay: ET1 secretion by non-stimulated 1° MK (ELISA); type: cell-based, mouse
ET1 [3] = assay: ET1 expression by UVB-exposed 1° MK (immunocytochemistry); type: cell-based, mouse; settings: cells preincubated with inhibitor
Procedure: 1° MK were exposed to UVB using the UV optical system (295 nm LED). 24 hours later the cells were fixed and fluorescently immunolabeled for ET1. Digital images were captured and subjected to morphometry.
Mouse keratinocytes were cultured on collagen coated quartz coverslips and then stimulated from the bottom using the previously mentioned UV optical system using the 295 nm LED. 24 hours later the cells were fixed in 4% formaldehyde in PBS for 20 minutes, permeabilized with 0.1% Triton X-100 in PBS for 10 minutes, washed, then blocked in 10% normal goat serum in PBS for 45 minutes. Coverslips were incubated overnight with primary antibody mouse anti-ET1 (1:200; Abcam), washed three times in PBS and incubated with secondary antibody for 2 hours at 25° C. Coverslips were washed three times in PBS, once with double-distilled H2O. Digital images were captured using a 40× immersion lens on the BX61 Olympus upright microscope. Morphometric analysis was conducted using ImageJ freeware with tailored regions-of-interest.

[4] = Formalin-evoked nocifensive (rubbing) behavior, whisker-pad injection, in vivo pain model in mice; design: species or system mouse
Procedure: Compounds were tested for their effect in reducing pain using an in vivo pain model in mice. For mouse formalin-evoked irritant behavior measurements, mice were well-fed, well-rested, and tested at the same time of day, at the same time-point of their circadian rhythm. They were allowed to acclimate to a plexiglas chamber for at least 30 min before testing, and received 10 μL subcutaneous injection of 4% of formalin (diluted from an aqueous solution of commercial 37% formaldehyde with normal saline (NS)) through a 30-gauge needle into the right whiskerpad, as further detailed in Luccarini et al. (J. Pain, 2006, 7, 908-914). Normal saline was used as control injection. After injection, mice were immediately placed back into the chamber and the rubbing behavior was recorded by a private consumer-type video-camera for a 45 min observation period. The recording time was divided into 9 blocks of 5 min, and a nociceptive score was determined per block by measuring the time that the animals spent rubbing the injected area predominantly with the ipsilateral fore-paw and rarely with hind-paw. This rubbing behavior with fore-paw is evoked by pain, which is distinct from itch behavior. Behavioral analysis was conducted by observers blinded to treatment.
To investigate the effects of the specific compounds GSK205, 16-8, and 16-8/18hy on formalin-induced nociceptive behavior, mice received a single subcutaneous injection of the compounds into the whiskerpad (10 μL, dissolved in 4% DMSO) 15 min before formalin injection. Control animals received the same volume of NS, 4% DMSO.

human TRPA1 = molecular target: T1, human TRPA1 (Homo sapiens, UniProt O75762); assay: Ca2+ transient in N2a cells transfected with human TRPA1; type: cell-based; settings: 5 μM compound
T1 construct: expressed in transfected cells; host or cells: N2a cells, pcDNA3.1 plasmid, co-transfected with an eGFP plasmid
T1 sequence (O75762 whole entry): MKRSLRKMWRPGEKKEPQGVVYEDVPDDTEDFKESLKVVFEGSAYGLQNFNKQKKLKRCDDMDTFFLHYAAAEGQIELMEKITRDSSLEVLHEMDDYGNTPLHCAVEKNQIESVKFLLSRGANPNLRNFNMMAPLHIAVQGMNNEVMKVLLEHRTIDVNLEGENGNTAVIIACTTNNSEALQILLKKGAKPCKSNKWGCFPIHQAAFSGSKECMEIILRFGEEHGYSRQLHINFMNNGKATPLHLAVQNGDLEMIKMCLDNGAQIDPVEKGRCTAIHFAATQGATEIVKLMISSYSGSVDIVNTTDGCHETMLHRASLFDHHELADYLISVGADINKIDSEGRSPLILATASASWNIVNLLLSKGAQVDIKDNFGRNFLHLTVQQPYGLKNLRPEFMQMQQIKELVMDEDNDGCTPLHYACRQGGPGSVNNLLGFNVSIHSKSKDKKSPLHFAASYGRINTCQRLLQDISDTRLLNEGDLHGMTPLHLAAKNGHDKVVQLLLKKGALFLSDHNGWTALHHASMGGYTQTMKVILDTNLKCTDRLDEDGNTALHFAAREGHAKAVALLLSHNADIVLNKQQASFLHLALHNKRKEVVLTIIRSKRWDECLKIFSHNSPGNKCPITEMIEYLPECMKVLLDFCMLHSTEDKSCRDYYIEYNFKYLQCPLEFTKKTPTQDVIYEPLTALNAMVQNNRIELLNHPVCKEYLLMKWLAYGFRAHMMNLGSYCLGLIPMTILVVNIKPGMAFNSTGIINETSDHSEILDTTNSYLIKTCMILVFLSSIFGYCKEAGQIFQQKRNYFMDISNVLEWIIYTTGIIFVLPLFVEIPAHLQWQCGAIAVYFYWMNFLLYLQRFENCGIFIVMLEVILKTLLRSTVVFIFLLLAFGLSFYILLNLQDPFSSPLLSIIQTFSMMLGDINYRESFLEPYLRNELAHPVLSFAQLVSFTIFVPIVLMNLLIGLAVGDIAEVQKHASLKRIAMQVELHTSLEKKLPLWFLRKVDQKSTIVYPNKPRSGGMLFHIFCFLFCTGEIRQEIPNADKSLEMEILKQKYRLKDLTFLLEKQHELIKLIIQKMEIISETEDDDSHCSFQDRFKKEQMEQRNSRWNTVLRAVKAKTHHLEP
Procedure: Compounds were tested for their effect on TRPA1. N2a permanent cells were transfected with human TRPA1 cDNA, using a pcDNA3.1 expression plasmid. They were co-transfected with eGFP-expressing plasmid, or, for control, with eGFP plasmid only.

human TRPV1 = molecular target: T2, human TRPV1 (Homo sapiens, UniProt Q8NER1); assay: Ca2+ signal in N2a cells transfected with human TRPV1; type: cell-based; settings: stimulation with 5 μM capsaicin
T2 construct: expressed in transfected cells; host or cells: N2a cells
T2 sequence (Q8NER1 whole entry): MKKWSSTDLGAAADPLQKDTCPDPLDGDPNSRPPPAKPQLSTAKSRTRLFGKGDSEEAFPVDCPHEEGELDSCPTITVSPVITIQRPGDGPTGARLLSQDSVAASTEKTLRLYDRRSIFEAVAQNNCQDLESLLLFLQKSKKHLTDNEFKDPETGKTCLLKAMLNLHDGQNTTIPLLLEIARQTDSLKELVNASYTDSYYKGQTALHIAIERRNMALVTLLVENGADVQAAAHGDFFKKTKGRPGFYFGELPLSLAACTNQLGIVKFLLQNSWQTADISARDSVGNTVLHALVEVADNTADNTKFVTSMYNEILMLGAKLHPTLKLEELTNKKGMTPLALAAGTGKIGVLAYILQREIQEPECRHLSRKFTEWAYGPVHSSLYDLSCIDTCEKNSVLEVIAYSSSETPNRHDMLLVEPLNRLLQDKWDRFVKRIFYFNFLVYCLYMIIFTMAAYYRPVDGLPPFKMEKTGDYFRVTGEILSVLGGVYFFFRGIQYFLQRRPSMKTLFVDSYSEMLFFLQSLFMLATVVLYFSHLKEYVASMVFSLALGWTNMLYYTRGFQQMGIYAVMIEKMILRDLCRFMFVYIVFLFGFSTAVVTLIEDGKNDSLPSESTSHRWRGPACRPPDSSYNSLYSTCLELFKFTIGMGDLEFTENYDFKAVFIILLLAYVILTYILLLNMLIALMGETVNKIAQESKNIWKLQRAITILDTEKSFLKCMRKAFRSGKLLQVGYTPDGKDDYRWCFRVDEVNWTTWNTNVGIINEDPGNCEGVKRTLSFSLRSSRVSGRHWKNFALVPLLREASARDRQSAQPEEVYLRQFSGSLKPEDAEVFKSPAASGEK
Procedure: (§1) Compounds were tested for their effect on TRPV1, TRPV2, and TRPV3. Methods were similar to those described in Example 15. Briefly, N2a cells were transfected with human TRPV1, TRPV2, or TRPV3. eGFP-transfection was used as control. For specific stimulation of TRPV1, 5 μM capsaicin was used. For stimulation of TRPV2, hypotonicity (260 mosmol/L) was used, based on previous reports of TRPV2 being osmotically responsive. N2a cells were not responsive to hypotonicity, and neither were control-transfected cells. For TRPV3-expressing cells, camphor (20% of a commercially available stock solution) was used. […] Stimulation and control protocols were applied as for TRPA1-expressing N2a cells as detailed above in Example 15.

human TRPV2 = molecular target: T3, human TRPV2 (Homo sapiens, UniProt Q9Y5S1); assay: Ca2+ signal in N2a cells transfected with human TRPV2; type: cell-based; settings: stimulation with hypotonicity (260 mosmol/L)
T3 construct: expressed in transfected cells; host or cells: N2a cells
T3 sequence (Q9Y5S1 1-764): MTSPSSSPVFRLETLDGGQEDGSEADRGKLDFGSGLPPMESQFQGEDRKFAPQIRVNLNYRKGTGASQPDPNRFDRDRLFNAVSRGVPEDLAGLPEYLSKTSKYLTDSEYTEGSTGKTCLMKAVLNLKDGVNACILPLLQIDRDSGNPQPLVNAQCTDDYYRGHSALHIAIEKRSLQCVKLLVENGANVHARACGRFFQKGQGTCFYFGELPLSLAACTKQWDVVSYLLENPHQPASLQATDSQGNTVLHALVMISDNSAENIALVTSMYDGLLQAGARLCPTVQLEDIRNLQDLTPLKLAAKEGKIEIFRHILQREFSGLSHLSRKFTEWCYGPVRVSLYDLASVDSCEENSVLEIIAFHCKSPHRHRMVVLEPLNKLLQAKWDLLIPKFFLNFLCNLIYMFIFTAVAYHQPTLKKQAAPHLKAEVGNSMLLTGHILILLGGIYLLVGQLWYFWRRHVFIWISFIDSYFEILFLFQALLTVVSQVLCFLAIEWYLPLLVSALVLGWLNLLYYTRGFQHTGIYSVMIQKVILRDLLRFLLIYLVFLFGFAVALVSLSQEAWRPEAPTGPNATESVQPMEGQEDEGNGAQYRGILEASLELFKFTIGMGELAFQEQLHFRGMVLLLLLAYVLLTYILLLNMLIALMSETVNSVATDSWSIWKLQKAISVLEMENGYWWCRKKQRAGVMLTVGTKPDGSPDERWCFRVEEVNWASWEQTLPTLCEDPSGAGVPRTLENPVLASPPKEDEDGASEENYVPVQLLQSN
Procedure: as §1

human TRPV3 = molecular target: T4, human TRPV3 (Homo sapiens, UniProt Q8NET8); assay: Ca2+ signal in N2a cells transfected with human TRPV3; type: cell-based; settings: stimulation with camphor
T4 construct: expressed in transfected cells; host or cells: N2a cells
T4 sequence (Q8NET8 1-790): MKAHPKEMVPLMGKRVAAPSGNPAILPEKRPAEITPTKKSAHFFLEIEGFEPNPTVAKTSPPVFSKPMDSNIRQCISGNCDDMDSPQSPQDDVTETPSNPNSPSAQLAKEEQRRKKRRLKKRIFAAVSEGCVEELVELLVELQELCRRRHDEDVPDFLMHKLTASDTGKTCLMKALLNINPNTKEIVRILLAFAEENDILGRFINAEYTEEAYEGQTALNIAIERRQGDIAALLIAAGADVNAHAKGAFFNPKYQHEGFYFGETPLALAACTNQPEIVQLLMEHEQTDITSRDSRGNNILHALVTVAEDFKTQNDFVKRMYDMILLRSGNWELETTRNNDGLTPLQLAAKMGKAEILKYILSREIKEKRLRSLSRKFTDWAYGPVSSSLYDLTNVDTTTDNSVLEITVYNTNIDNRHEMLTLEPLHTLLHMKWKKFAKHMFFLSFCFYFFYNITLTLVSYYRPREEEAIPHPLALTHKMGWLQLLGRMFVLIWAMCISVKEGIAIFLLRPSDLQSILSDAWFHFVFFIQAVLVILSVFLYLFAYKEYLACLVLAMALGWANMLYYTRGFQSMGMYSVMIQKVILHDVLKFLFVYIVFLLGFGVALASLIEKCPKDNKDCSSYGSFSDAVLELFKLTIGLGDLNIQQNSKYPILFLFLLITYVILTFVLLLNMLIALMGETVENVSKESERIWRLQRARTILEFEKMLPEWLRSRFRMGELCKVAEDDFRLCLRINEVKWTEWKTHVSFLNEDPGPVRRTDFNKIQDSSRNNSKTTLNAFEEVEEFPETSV
Procedure: as §1

TRPV4 = TRPV4 (Homo sapiens, UniProt Q9HBA0); assay: TRPV4-mediated calcium influx in N2a cells with targeted expression of human TRPV4; type: cell-based; design: expressed in transfected cells; host or cells: N2a cells; settings: 2.5 μM inhibitor, pre-incubation 10 min; TRPV4 activated with 10 nM GSK101
TRPV4, sequence (Q9HBA0 whole entry): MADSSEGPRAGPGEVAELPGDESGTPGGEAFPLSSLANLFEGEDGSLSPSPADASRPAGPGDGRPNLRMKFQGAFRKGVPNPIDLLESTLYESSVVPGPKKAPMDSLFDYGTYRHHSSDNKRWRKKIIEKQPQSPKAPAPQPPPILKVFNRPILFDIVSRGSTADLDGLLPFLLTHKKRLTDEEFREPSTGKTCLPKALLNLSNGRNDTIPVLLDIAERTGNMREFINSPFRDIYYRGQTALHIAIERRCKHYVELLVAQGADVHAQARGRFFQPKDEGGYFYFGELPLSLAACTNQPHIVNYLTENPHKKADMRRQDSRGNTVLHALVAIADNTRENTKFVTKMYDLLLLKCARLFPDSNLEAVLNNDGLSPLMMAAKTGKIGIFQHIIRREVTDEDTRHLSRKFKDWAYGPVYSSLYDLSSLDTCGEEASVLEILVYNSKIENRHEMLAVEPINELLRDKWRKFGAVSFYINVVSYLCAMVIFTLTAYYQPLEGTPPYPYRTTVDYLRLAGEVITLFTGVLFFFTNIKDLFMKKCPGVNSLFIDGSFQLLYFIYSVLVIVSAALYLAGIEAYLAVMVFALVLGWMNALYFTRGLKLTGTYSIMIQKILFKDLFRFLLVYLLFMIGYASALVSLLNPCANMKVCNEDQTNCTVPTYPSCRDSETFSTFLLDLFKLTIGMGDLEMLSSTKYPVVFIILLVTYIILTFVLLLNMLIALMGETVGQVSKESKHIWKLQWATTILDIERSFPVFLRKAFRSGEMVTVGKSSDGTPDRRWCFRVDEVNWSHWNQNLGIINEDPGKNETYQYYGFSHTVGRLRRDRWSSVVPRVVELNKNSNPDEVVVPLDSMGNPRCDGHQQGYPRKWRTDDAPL
Procedure: Compounds (GSK205, 16-12, 16-13, 16-14, 16-18, 16-8, and 16-8/18hy) were tested for their effect on TRPV4-mediated calcium influx in N2a cultured cells with targeted expression of human TRPV4. Ca2+ imaging was performed according to Li et al. (Environ. Health Perspect. 2011, 119, 784-93) and Moore et al. (Proc. Natl. Acad. Sci. U.S.A. 2013, 110, E3225-E3234). Briefly, Ca2+ imaging of primary mouse epidermal keratinocytes (1° MK) in response to chemical activation of TRPV4 was conducted after loading with 2 μM fura2-AM, following a ratiometric Ca2+-imaging protocol with 340/380 nm blue light for dual excitation. Ratios of emissions were acquired at 0.5 Hz. ΔR/R0 was determined as the fraction of the increase of a given ratio over baseline ratio, divided by baseline ratio. For stimulation of cells with UVB, where fura-2 was not suitable because of the proximity of stimulation with 340/380 nm vs. 295 nm, 2 μM fluo4-AM was used instead. Ca2+ imaging was carried out at 488 nm excitation, acquisition of emissions at 0.5 Hz, expressed as ΔF/F0. TRPV4 was activated with 10 nM GSK101, a specific activator, which had no effect on RFP-transfected cells. Each of the […] compounds were added to a concentration of 2.5 μM, and its effect was observed.

COc1ccc2c(c1)CC[C@@H]1[C@@H]2CC[C@]2(C)[C@@H](NCCCCCCN3C(=O)C=CC3=O)CC[C@@H]12 [Compound U73122]
UVB-evoked Ca++ signaling (ΔF/F0) [1]: virtually eliminated; also recorded: strongly reduced | ET1 secretion into supernatant (relative ET1 concentration) (ET1 [2]): down-regulation | ET1 immunoreactivity (ET1 [3]): dampened ET1 expression; also recorded: significant down-regulation

CC(C)C[C@@H]1NC(=O)[C@@H](C(C)C)NC(=O)[C@@H]2CCCN2C(=O)[C@@H](CC(=O)O)NC(=O)[C@@H](Cc2c[nH]c3ccccc23)NC1=O [BQ123] (cyclo(L[dW][dD]P[dV]))
ET1-augmented, UVB-induced Ca++ transients [1]: attenuated

C=C(C)CCO[P@@](=O)(O)OP(=O)(O)O [IPP, isopentenyl pyrophosphate]
UVB-evoked Ca++ signaling (ΔF/F0) [1]: no effect; also recorded: not inhibited

CCN(CCc1ccc(Nc2nc(-c3ccccc3)cs2)cc1)Cc1ccccc1 [Compound 16-8/18hy]
formalin-induced nocifensive behavior at the 45-min time-point ([4]; 0.5 mM/10 μL, 45-min time-point): reversal to control levels | formalin-induced nocifensive behavior, time course ([4]; 0.5 mM/10 μL, FIG. 21D): significantly attenuated nocifensive behavior | formalin-induced nocifensive behavior, quantitation, in particular second phase ([4]; compounds pre-injected at 0.5 mM/10 μL into whiskerpad 15 min before 4% formalin): significant attenuation of nocifensive behavior | inhibitory activity against human TRPA1 (human TRPA1): inhibitory activity | Ca2+ transience on TRPV1 stimulation (human TRPV1): not affected | Ca2+ transience on TRPV2 stimulation (human TRPV2): not affected | Ca2+ transience on TRPV3 stimulation (human TRPV3): not affected | inhibition of TRPV4-mediated calcium influx (peak calcium concentration in the cells) (TRPV4): did not show enhanced inhibition over 16-8

CCN(CCc1ccc(Nc2nc(-c3cccnc3)cs2)cc1)Cc1ccccc1 [Compound 16-18]
inhibition of TRPV4-mediated calcium influx (peak calcium concentration in the cells) (TRPV4): most potent

O=C(O)C(Cc1ccc2c(c1)oc1ccccc12)NCP(=O)(O)O (centres unmarked) [CGS35066]
UVB-evoked Ca++ signaling (ΔF/F0) [1]: significantly diminished; also recorded: significant attenuation | ET1 secretion into supernatant (relative ET1 concentration) (ET1 [2]): down-regulation | ET1 immunoreactivity (ET1 [3]): significant down-regulation

CCCC[C@@H](NC(=O)[C@@H](Cc1cn(C(=O)OC)c2ccccc12)NC(=O)[C@H](CC(C)(C)C)NC(=O)N1[C@H](C)CCC[C@@H]1C)C(=O)O [BQ788]
ET1-augmented, UVB-induced Ca++ transients [1]: attenuated

CC(C)NCCN(C(C)C)S(=O)(=O)c1ccc(Cl)cc1Cl [RN1734]
ET1 secretion into supernatant (relative ET1 concentration) (ET1 [2]): significant down-regulation | ET1 immunoreactivity (ET1 [3]): diminished; also recorded: significant down-regulation

From patent publication US11014896B2, “TRPA1 and TRPV4 inhibitors and methods of using the same for organ-specific inflammation and itch” (Duke University, priority 2014, dated 2021)
